From PubChem BioAssay (NCI)
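96-well plates; 48 h exposure; 5 concentrations. Endpoints by linear interpolation between flanking doses. Not reached: highest tested concentration assigned. Definition used: TGI = concentration required for complete inhibition of growth.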

Legend:
Assay in all cases: NCI-60 cell line screen, 48 h
TK-10 renal = test system: TK-10 renal
A498 renal = test system: A498 renal
HOP-62 NSCLC = test system: HOP-62 NSCLC
SK-MEL-2 melanoma = test system: SK-MEL-2 melanoma
DMS 273 small cell lung = test system: DMS 273 small cell lung
CCRF-CEM leukemia = test system: CCRF-CEM leukemia
HL-60(TB) leukemia = test system: HL-60(TB) leukemia
DMS 114 small cell lung = test system: DMS 114 small cell lung
NCI-H23 lung = test system: NCI-H23 lung
RPMI-8226 leukemia = test system: RPMI-8226 leukemia
SK-MEL-28 melanoma = test system: SK-MEL-28 melanoma
SNB-19 CNS = test system: SNB-19 CNS
SNB-78 CNS = test system: SNB-78 CNS
MOLT-4 leukemia = test system: MOLT-4 leukemia
HOP-92 NSCLC = test system: HOP-92 NSCLC
LXFL 529 NSCLC = test system: LXFL 529 NSCLC
SF-268 CNS = test system: SF-268 CNS
UACC-62 melanoma = test system: UACC-62 melanoma
KM20L2 colon = test system: KM20L2 colon
SK-OV-3 ovarian = test system: SK-OV-3 ovarian
U251 CNS = test system: U251 CNS
SNB-75 CNS = test system: SNB-75 CNS
OVCAR-5 ovarian = test system: OVCAR-5 ovarian
SW-620 colon = test system: SW-620 colon
NCI-H522 lung = test system: NCI-H522 lung
CAKI-1 renal = test system: CAKI-1 renal
HT29 colon = test system: HT29 colon
SR leukemia = test system: SR leukemia
EKVX NSCLC = test system: EKVX NSCLC
LOX IMVI melanoma = test system: LOX IMVI melanoma
A549 NSCLC = test system: A549 NSCLC
K-562 leukemia = test system: K-562 leukemia
M14 melanoma = test system: M14 melanoma
IGROV1 ovarian = test system: IGROV1 ovarian
KM12 colon = test system: KM12 colon
DLD-1 colon = test system: DLD-1 colon
HCT-15 colon = test system: HCT-15 colon
OVCAR-8 ovarian = test system: OVCAR-8 ovarian
ACHN renal = test system: ACHN renal
COLO 205 colon = test system: COLO 205 colon
786-0 renal = test system: 786-0 renal
OVCAR-3 ovarian = test system: OVCAR-3 ovarian
OVCAR-4 ovarian = test system: OVCAR-4 ovarian
HCT-116 colon = test system: HCT-116 colon
MALME-3M melanoma = test system: MALME-3M melanoma
UO-31 renal = test system: UO-31 renal
NCI-H460 lung = test system: NCI-H460 lung
SF-539 CNS = test system: SF-539 CNS
SK-MEL-5 melanoma = test system: SK-MEL-5 melanoma
SN12C renal = test system: SN12C renal
SF-295 CNS = test system: SF-295 CNS
HOP-18 NSCLC = test system: HOP-18 NSCLC
UACC-257 melanoma = test system: UACC-257 melanoma
HCC-2998 colon = test system: HCC-2998 colon
M19-MEL melanoma = test system: M19-MEL melanoma
RXF 393 renal = test system: RXF 393 renal
NCI-H226 lung = test system: NCI-H226 lung

## COc1cc(Cn2c3ccccc3c3cc(C)c4c(c32)C=CC(C)(CCC=C(C)C)O4)cc2c1[nH]c1ccccc12 (configuration not stated)
TK-10 renal
  TGI: > 100 µM
A498 renal
  TGI: > 100 µM
HOP-62 NSCLC
  TGI: > 100 µM
SK-MEL-2 melanoma
  TGI: > 100 µM
DMS 273 small cell lung
  TGI: > 100 µM
CCRF-CEM leukemia
  TGI: > 100 µM
HL-60(TB) leukemia
  TGI: > 100 µM
DMS 114 small cell lung
  TGI: > 100 µM
NCI-H23 lung
  TGI: > 100 µM
RPMI-8226 leukemia
  TGI: > 100 µM
SK-MEL-28 melanoma
  TGI: > 100 µM
SNB-19 CNS
  TGI: > 100 µM
SNB-78 CNS
  TGI: > 100 µM
MOLT-4 leukemia
  TGI: > 100 µM
HOP-92 NSCLC
  TGI: > 100 µM
LXFL 529 NSCLC
  TGI: > 100 µM
SF-268 CNS
  TGI: > 100 µM
UACC-62 melanoma
  TGI: > 100 µM
KM20L2 colon
  TGI: > 100 µM
SK-OV-3 ovarian
  TGI: > 100 µM
U251 CNS
  TGI: > 100 µM
SNB-75 CNS
  TGI: > 100 µM
OVCAR-5 ovarian
  TGI: > 100 µM
SW-620 colon
  TGI: > 100 µM
NCI-H522 lung
  TGI: > 100 µM
CAKI-1 renal
  TGI: > 100 µM
HT29 colon
  TGI: > 100 µM
SR leukemia
  TGI: > 100 µM
EKVX NSCLC
  TGI: > 100 µM
LOX IMVI melanoma
  TGI: > 100 µM
A549 NSCLC
  TGI: > 100 µM
K-562 leukemia
  TGI: > 100 µM
M14 melanoma
  TGI: > 100 µM
IGROV1 ovarian
  TGI: > 100 µM
KM12 colon
  TGI: > 100 µM
DLD-1 colon
  TGI: > 100 µM
HCT-15 colon
  TGI: > 100 µM
OVCAR-8 ovarian
  TGI: > 100 µM
ACHN renal
  TGI: > 100 µM
COLO 205 colon
  TGI: > 100 µM
786-0 renal
  TGI: > 100 µM
OVCAR-3 ovarian
  TGI: > 100 µM
OVCAR-4 ovarian
  TGI: > 100 µM
HCT-116 colon
  TGI: > 100 µM
MALME-3M melanoma
  TGI: > 100 µM
UO-31 renal
  TGI: > 100 µM
NCI-H460 lung
  TGI: > 100 µM
SF-539 CNS
  TGI: > 100 µM
SK-MEL-5 melanoma
  TGI: > 100 µM
SN12C renal
  TGI: > 100 µM
SF-295 CNS
  TGI: > 100 µM
HOP-18 NSCLC
  TGI: > 100 µM
UACC-257 melanoma
  TGI: > 100 µM
HCC-2998 colon
  TGI: > 100 µM
M19-MEL melanoma
  TGI: > 100 µM
RXF 393 renal
  TGI: > 100 µM

## O=C1[C@H]2ON(c3ccccc3)C(c3ccccc3Cl)[C@H]2C(=O)N1c1ccc(Cc2ccc(N3C(=O)[C@@H]4ON(c5ccccc5)C(c5ccccc5Cl)[C@@H]4C3=O)cc2)cc1 (some centres not stated)
TK-10 renal
  TGI: > 100 µM
A498 renal
  TGI: > 100 µM
HOP-62 NSCLC
  TGI: > 100 µM
SK-MEL-2 melanoma
  TGI: > 100 µM
DMS 273 small cell lung
  TGI: > 100 µM
CCRF-CEM leukemia
  TGI: > 100 µM
HL-60(TB) leukemia
  TGI: > 100 µM
DMS 114 small cell lung
  TGI: > 100 µM
NCI-H23 lung
  TGI: > 100 µM
RPMI-8226 leukemia
  TGI: > 100 µM
SK-MEL-28 melanoma
  TGI: > 100 µM
SNB-19 CNS
  TGI: > 100 µM
SNB-78 CNS
  TGI: > 100 µM
MOLT-4 leukemia
  TGI: > 100 µM
HOP-92 NSCLC
  TGI: > 100 µM
LXFL 529 NSCLC
  TGI: > 100 µM
SF-268 CNS
  TGI: > 100 µM
UACC-62 melanoma
  TGI: > 100 µM
KM20L2 colon
  TGI: > 100 µM
SK-OV-3 ovarian
  TGI: > 100 µM
U251 CNS
  TGI: > 100 µM
SNB-75 CNS
  TGI: > 100 µM
OVCAR-5 ovarian
  TGI: > 100 µM
SW-620 colon
  TGI: > 100 µM
NCI-H522 lung
  TGI: > 100 µM
CAKI-1 renal
  TGI: > 100 µM
HT29 colon
  TGI: > 100 µM
SR leukemia
  TGI: > 100 µM
EKVX NSCLC
  TGI: > 100 µM
LOX IMVI melanoma
  TGI: > 100 µM
A549 NSCLC
  TGI: > 100 µM
K-562 leukemia
  TGI: > 100 µM
M14 melanoma
  TGI: 73.5 µM
IGROV1 ovarian
  TGI: > 100 µM
KM12 colon
  TGI: > 100 µM
DLD-1 colon
  TGI: > 100 µM
HCT-15 colon
  TGI: > 100 µM
OVCAR-8 ovarian
  TGI: > 100 µM
ACHN renal
  TGI: > 100 µM
COLO 205 colon
  TGI: > 100 µM
786-0 renal
  TGI: > 100 µM
NCI-H226 lung
  TGI: > 100 µM
OVCAR-3 ovarian
  TGI: > 100 µM
OVCAR-4 ovarian
  TGI: > 100 µM
HCT-116 colon
  TGI: > 100 µM
MALME-3M melanoma
  TGI: > 100 µM
UO-31 renal
  TGI: > 100 µM
NCI-H460 lung
  TGI: > 100 µM
SF-539 CNS
  TGI: > 100 µM
SK-MEL-5 melanoma
  TGI: > 100 µM
SN12C renal
  TGI: > 100 µM
SF-295 CNS
  TGI: > 100 µM
HOP-18 NSCLC
  TGI: > 100 µM
UACC-257 melanoma
  TGI: > 100 µM
HCC-2998 colon
  TGI: > 100 µM
M19-MEL melanoma
  TGI: > 100 µM
